Results reported in patent publication US12617772B2, “Hydroxypyridine HSD17B13 inhibitors and uses thereof” (INIPHARM, INC., priority 2021, dated 2026).

Target: T1, HSD17B13 (Homo sapiens, UniProt Q7Z5P4)
T1 construct: His; made in house; host or cells: E. coli
T1 sequence (Q7Z5P4 20-300): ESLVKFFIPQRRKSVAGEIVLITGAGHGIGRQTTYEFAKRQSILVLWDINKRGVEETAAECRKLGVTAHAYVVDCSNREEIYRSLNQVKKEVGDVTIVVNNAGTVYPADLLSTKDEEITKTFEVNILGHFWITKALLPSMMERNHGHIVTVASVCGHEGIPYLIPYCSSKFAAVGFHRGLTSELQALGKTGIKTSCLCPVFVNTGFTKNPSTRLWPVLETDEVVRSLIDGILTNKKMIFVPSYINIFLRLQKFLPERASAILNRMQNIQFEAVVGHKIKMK
Assay: LC/MS estrone detection assay: conversion of estradiol to estrone by HSD17B13
Format: biochemical
Conditions: 4 μM estradiol, 6 mM NAD, 30 nM HSD17B13 enzyme (E. coli expressed His-tagged), 2 hours at 26.5° C.
Protocol: Example A: Estrone Detection Assay for Evaluation of HSD17ß13 Activity and Identification of Inhibitors
The liquid chromatography/mass spectrometry (LC/MS) estrone detection assay monitors the conversion of estradiol to estrone by HSD17B13. This assay was undertaken in a 96 wp format (Eppendorf deep well Plate 96/500) in an 80 μl reaction volume containing: 4 μM of Estradiol (E2; Cayman; #10006315), 6 mM NAD (Sigma; #N0623) and 30 nM HSD17B13 enzyme (in-house; E. coli expressed His-tagged, purified, soluble protein) in a reaction containing […] potassium phosphate buffer pH 7.4, with 0.5% vehicle (DMSO). Reactions were incubated for 2 hours at 26.5° C., and estradiol (E2) conversion to estrone (E1) was quantitated by LC-MS/MS based analyte detection for both E2 and E1 using LCMS grade reagents.
Reactions were terminated by the addition of two volumes of acetonitrile (MeCN: LCMS grade; CAS #75/05/8) containing deuterated (D4)-E1 used as internal standard (Clear Synth: #CS-T-54273; 500 ng/ml final concentration). Samples were applied to pre-prepared Bond Elut-C18 extraction cartridges (3 mL; Agilent; #12102028), washed and eluted in MeCN. Eluates were dried under nitrogen and re-suspended in 60% methanol (LCMS grade methanol; CAS #67/56/1) before submission for analysis. Aqueous linearity for E2 and E1 were included for quantification.
Analysis of samples was undertaken on a XBridge BEH C18 column (Waters; #186003033) using 0.1% Diethyl Amine in MeCN (mobile phase A; DEA CAS #109-89-7) and 0.1% Diethyl Amine in milli-Q water (mobile phase B) in a 3 min gradient allowing 25% B. Analytes were detected in negative mode using MRM analysis, with E2 having a RT of 1.85 min and E1 having a RT of 2 min. Activity of the enzyme, in the absence of NAD^+, was used to evaluate specificity of conversion. Enzyme activity in the presence of test samples was expressed as a percentage of the uninhibited enzyme activity, and plotted versus inhibitor concentration. Non-linear regression was performed using a four-parameter logistic model and GraphPad Prism software (GraphPad Software, La Jolla, CA). All assessments were undertaken in duplicate evaluations and pooled during extraction process and subsequently injected as duplicates for LC-MS/MS analysis.

| SMILES | IC50 |
| --- | --- |
| O=C(Nc1cccc2ncn(CCc3ccccc3C(F)(F)F)c(=O)c12)c1ccc(O)c(C(F)(F)F)n1 [Example 2, 5-hydroxy-N-(4-oxo-3-(2-(trifluoromethyl)phenethyl)-3,4-dihydroquinazolin-5-y1)-6-(trifluoromethyl)picolinamide] | 100 to 500 nM |
| O=C(Nc1cc(Cl)sc1C(=O)NCCc1ccccc1OC(F)(F)F)c1ccc(O)c(C(F)(F)F)n1 [Example 7, N-(5-chloro-2-((2-(trifluoromethoxy)phenethyl)carbamoyl)thiophen-3-y1)-5-hydroxy-6-(trifluoromethyl)picolinamide] | 100 to 500 nM |

Continued, values first:

| IC50 | SMILES |
| --- | --- |
| ≤ 100 nM | CC(C)(C)CCNC(=O)c1sccc1NC(=O)c1ccc(O)c(C(F)(F)F)n1 [Example 5, N-(2-((3,3-dimethylbutyl)carbamoyl)thiophen-3-y1)-5-hydroxy-6-(trifluoromethyl) picolinamide] |
| ≤ 100 nM | COc1ccccc1CCn1cnc2cccc(NC(=O)c3ccc(O)c(C(F)(F)F)n3)c2c1=O [Example 6, 5-hydroxy-N-(3-(2-methoxyphenethyl)-4-oxo-3,4-dihydroquinazolin-5-yl)-6-(trifluoromethyl) picolinamide] |
| ≤ 100 nM | O=C(Nc1cccc2ncn(CCc3ccccc3OC(F)(F)F)c(=O)c12)c1ccc(O)c(C(F)(F)F)n1 [Example 1, 5-hydroxy-N-(4-oxo-3-(2-(trifluoromethoxy)phenethyl)-3,4-dihydroquinazolin-5-yl)-6-(trifluoromethyl)picolinamide] |
| ≤ 100 nM | O=C(Nc1cccc2ncn(Cc3ccccc3OC(F)(F)F)c(=O)c12)c1ccc(O)c(C(F)(F)F)n1 [Example 3, 5-hydroxy-N-(4-oxo-3-{[2-(trifluoromethoxy)phenyl]methyl}-3,4-dihydroquinazolin-5-yl)-6-(trifluoromethyl) pyridine-2-carboxamide] |
